Measurements as given in the supplement of paper PMC8253809.

Columns and labels:
HGGX39 [1] = paediatric high-grade glioma line; test: EC50 (inflection of fitted growth-inhibition curve) (log10 M)
Outline: (§1)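 Compounds were delivered by pin tool as a 10-point threefold dilution series with a mean top concentration of 35 μM, in triplicate, to patient-derived pHGG/DIPG cell lines and astrocyte controls growing on 1% Geltrex-coated 384-well plates. Incubation lasted 7 days, or 3 days for iAstro, at 37 °C with 5% CO2. EC50 and maximal response (yFin) come from the three- or four-parameter log-logistic fit with the lowest AICc, applied to pooled, log2-transformed CellTiter-Glo luminescence normalised per plate to % activity between solvent (negative) and positive control wells.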

HGGX6 [2] = H3.3 G34R paediatric high-grade glioma line; test: as above
Outline: as §1

DIPGX29 [3] = H3.3 K27M diffuse intrinsic pontine glioma line; test: as above
Outline: as §1

DIPGX37 [4] = H3.3 K27M diffuse intrinsic pontine glioma line; test: as above
Outline: as §1

HGGX39 [5] = test: area under dose-response curve of % growth inhibition (log2 RLU vs DMSO / staurosporine), 1e-11 to 1e-4 M (% x log10 M); higher = more growth inhibition
Outline: (§2)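 Area under the curve was derived with the trapezoid rule from a fitted log-logistic curve, switching to a smoothing spline if the sigmoid fit failed. It rested on per-plate % activity between solvent and positive controls, calculated from log2-transformed CellTiter-Glo luminescence after 7 days of exposure (3 days for iAstro) at 37 °C, 5% CO2. Patient-derived pHGG/DIPG lines and astrocytes on 1% Geltrex-coated 384-well plates received a 10-point threefold dilution series, mean top concentration 35 μM, in triplicate.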

HGGX6 [6] = test: as above
Outline: as §2

DIPGX29 [7] = test: as above
Outline: as §2

DIPGX37 [8] = test: as above
Outline: as §2

HGGX39 [9] = test: maximal growth inhibition (yFin) relative to DMSO / staurosporine; higher = more efficacious
Outline: as §1

HGGX6 [10] = test: as above
Outline: as §1

DIPGX29 [11] = test: as above
Outline: as §1

DIPGX37 [12] = test: as above
Outline: as §1

Row | Compound | EC50 (log10 M) (HGGX39 [1]) | EC50 (log10 M) (HGGX6 [2]) | EC50 (log10 M) (DIPGX29 [3]) | EC50 (log10 M) (DIPGX37 [4]) | area under dose-response curve (HGGX39 [5]) | area under dose-response curve (HGGX6 [6]) | area under dose-response curve (DIPGX29 [7]) | area under dose-response curve (DIPGX37 [8]) | maximal growth inhibition (HGGX39 [9]) [%] | maximal growth inhibition (HGGX6 [10]) [%] | maximal growth inhibition (DIPGX29 [11]) [%] | maximal growth inhibition (DIPGX37 [12]) [%]
1 | CCN1CCN(c2cc(-c3ccc(F)cc3)c3c(n2)CCCCCC3)CC1 [BLONANSERIN] | -4.94 | -4.81 | -5.17 | -4.93 | 81.4 | 64.4 | 63.1 | 73.5 | 85.3 | 79.5 | 53.1 | 77.4
2 | COc1cc(Nc2c(C#N)cnc3cc(OCCCN4CCN(C)CC4)c(OC)cc23)c(Cl)cc1Cl [BOSUTINIB] | -4.74 | -4.75 | -4.78 | -4.76 | 71.8 | 74.3 | 75.5 | 80.4 | 79.3 | 75.7 | 74.1 | 71.8
3 | CCOC(=O)Nc1cc(-c2ccc(C)c(NS(C)(=O)=O)c2)nn2c(C)nnc12 [BROMOSPORINE] | -5.01 | -5.51 | -5.25 | -5.23 | 43.6 | 33 | 32.2 | 66.5 | 42.7 | 21.4 | 25.2 | 53.4
4 | CCCCOc1ccc(CC(=O)NO)cc1 [BUFEXAMAC] | -4.28 | -4.33 | -4.28 | -4.2 | 27.2 | 25.5 | 15.7 | 15.4 | 95.6 | 79.2 | 57.1 | 76.7
5 | Nc1cc(C(F)(F)F)c(-c2cc(N3CCOCC3)nc(N3CCOCC3)n2)cn1 [BUPARLISIB] | -5.56 | -6.21 | -5.14 | -5.55 | 58.2 | 43.9 | 81.3 | 95.5 | 41.2 | 21.8 | 67.8 | 59.3
6 | Clc1ccc(CCC(Cn2ccnc2)Sc2c(Cl)cccc2Cl)cc1 (centres undefined) [BUTOCONAZOLE] | -4.87 | -4.79 | -4.86 | -4.84 | 80.5 | 37.8 | 59.7 | 69.4 | 85.9 | 47.6 | 57 | 70.3
7 | Cc1cc(C2CCCCC2)n(O)c(=O)c1 [CICLOPIROX] | -5.04 | -6.23 | -6.42 | -6.44 | 84.1 | 142 | 138 | 142 | 72.3 | 63.9 | 57.2 | 58.3
8 | C[C@@H](NCCCc1cccc(C(F)(F)F)c1)c1cccc2ccccc12 [CINACALCET] | -5.05 | -5.03 | -5.03 | -5.04 | 111 | 98.5 | 99.9 | 112 | 94.2 | 84.4 | 82.1 | 90.5
9 | CC(C)/N=c1\cc2n(-c3ccc(Cl)cc3)c3ccccc3nc-2cc1Nc1ccc(Cl)cc1 [CLOFAZIMINE] | -4.88 | -4.91 | -5.16 | -4.91 | 79.8 | 65.3 | 76.3 | 84.9 | 90.6 | 71.5 | 54.4 | 83.8
10 | CCN(CC)CCOc1ccc(C(=C(Cl)c2ccccc2)c2ccccc2)cc1 [CLOMIPHENE] | -5.71 | -5.11 | -4.92 | -5.2 | 139 | 80.2 | 71.2 | 102 | 81.6 | 71.4 | 77 | 84.8
11 | COc1cccc2c1C(=O)c1c(O)c3c(c(O)c1C2=O)C[C@@](O)(C(C)=O)C[C@@H]3O[C@H]1C[C@H](N)[C@H](O)[C@H](C)O1 [DAUNORUBICIN] | -6.13 | -5.62 | -5.69 | -5.94 | 159 | 124 | 141 | 160 | 76.1 | 76.4 | 83.3 | 82.2
12 | CCCCCCCCCCCC[N+](C)(C)CCOc1ccccc1 [DOMIPHEN] | -5.59 | -5.11 | -5.18 | -5.28 | 129 | 79.9 | 95.4 | 109 | 81 | 71.7 | 80.5 | 85.2
13 | CCCCOc1ccc(C(=O)CCN2CCCCC2)cc1 [DYCLONINE] | -5.12 | -5.02 | -4.83 | -5.35 | 110 | 89.2 | 92.7 | 129 | 98.8 | 87.9 | 87.1 | 95.1
14 | OCCN1CCN(CCCN2c3ccccc3Sc3ccc(C(F)(F)F)cc32)CC1 [FLUFENAZINE] | -4.77 | -4.76 | -4.74 | -4.74 | 64 | 67.4 | 45.7 | 59.8 | 65.9 | 63.5 | 61.6 | 65.2
15 | Fc1ccc(C(c2ccc(F)cc2)N2CCN(C/C=C/c3ccccc3)CC2)cc1 [FLUNARIZINE] | -4.91 | -4.86 | -4.86 | -4.84 | 73.5 | 56.4 | 61.5 | 62.8 | 83 | 65.9 | 71.7 | 74.5
16 | C[C@@H](O[C@H]1OCCN(Cc2nn(P(=O)(O)O)c(=O)[nH]2)[C@H]1c1ccc(F)cc1)c1cc(C(F)(F)F)cc(C(F)(F)F)c1 [FOSAPREPITANT] | -4.81 | -4.84 | -4.84 | -4.83 | 66.7 | 47.1 | 63.6 | 70.6 | 82.4 | 56 | 60.6 | 69.8

Row | Compound | EC50 (log10 M) (HGGX39 [1]) | EC50 (log10 M) (HGGX6 [2]) | EC50 (log10 M) (DIPGX29 [3]) | EC50 (log10 M) (DIPGX37 [4]) | area under dose-response curve (HGGX39 [5]) | area under dose-response curve (HGGX6 [6]) | area under dose-response curve (DIPGX29 [7]) | area under dose-response curve (DIPGX37 [8]) | maximal growth inhibition (HGGX39 [9]) [%] | maximal growth inhibition (HGGX6 [10]) [%] | maximal growth inhibition (DIPGX29 [11]) [%] | maximal growth inhibition (DIPGX37 [12]) [%]
17 | CCn1c(=O)c(-c2ccc(Cl)cc2Cl)cc2cnc(Nc3ccc(N4CCNCC4)c(F)c3)nc21 [FRAX486] | -5.64 | -5.32 | -5.23 | -5.3 | 139 | 97.4 | 135 | 142 | 84.5 | 73.5 | 80.4 | 81
18 | COc1cc2ncnc(Nc3ccc(F)c(Cl)c3)c2cc1OCCCN1CCOCC1 [GEFITINIB] | -4.65 | -4.67 | -4.7 | -4.66 | 47.9 | 47.8 | 54.3 | 46.1 | 73.7 | 65.7 | 58.3 | 69.8
19 | CN(C)c1ccc(C(=C2C=CC(=[N+](C)C)C=C2)c2ccc(N(C)C)cc2)cc1 [GENTIAN VIOLET] | -4.97 | -5.16 | -5.15 | -5.13 | 164 | 133 | 158 | 152 | 121 | 112 | 128 | 124
20 | COc1cc(C(=O)N2CC[C@@H](O)[C@@H](N)C2)cc2nc(-c3cc4ccccc4n3CC3CC3)n(C)c12 [GSK-484] | -4.99 | -4.98 | -4.94 | -4.89 | 20.6 | 48.9 | 54.6 | 67.7 | 20.9 | 45.4 | 50.1 | 64
21 | C=CC(=O)N1CCC[C@@H](n2nc(-c3ccc(Oc4ccccc4)cc3)c3c(N)ncnc32)C1 [IBRUTINIB] | -4.94 | -5.01 | -5 | -4.96 | 50.1 | 35.8 | 49.8 | 53.7 | 53.1 | 35.5 | 29.8 | 41.2
22 | O=C1[C@H](Cc2ccc(O)cc2)N2C(=O)CCN(C(=O)NCc3ccccc3)[C@H]2CN1Cc1cccc2ccccc12 [ICG001] | -5.67 | -5.14 | -5.37 | -5.54 | 52.2 | 41.9 | 29.3 | 51.9 | 32.6 | 31.8 | 21.3 | 33.4
23 | CC(C)(C)c1cc(C(C)(C)C)c(NC(=O)c2c[nH]c3ccccc3c2=O)cc1O [IVACAFTOR] | -5.04 | -5.01 | -4.99 | -4.98 | 101 | 91.8 | 90.3 | 99.3 | 97.1 | 91 | 90.9 | 97
24 | CC(=O)N1CCN(c2ccc(OCC3COC(Cn4ccnc4)(c4ccc(Cl)cc4Cl)O3)cc2)CC1 (centres undefined) [KETOCONAZOLE] | -5.12 | -4.94 | -4.92 | -4.96 | 73.6 | 53.4 | 40.9 | 36.1 | 68.2 | 56.7 | 40.2 | 37.6
25 | CCOC(=O)C1=C(C)NC(C)=C(C(=O)OCC)C1c1ccccc1/C=C/C(=O)OC(C)(C)C [LACIDIPINE] | -4.84 | -4.86 | -4.84 | -4.83 | 76.3 | 63.4 | 72.8 | 75.3 | 90.8 | 74.3 | 87.2 | 91.1
26 | CS(=O)(=O)CCNCc1ccc(-c2ccc3ncnc(Nc4ccc(OCc5cccc(F)c5)c(Cl)c4)c3c2)o1 [LAPATINIB] | -4.71 | -4.69 | -4.72 | -4.7 | 55 | 57.8 | 70.3 | 72.5 | 76.9 | 76.8 | 76.7 | 78.4
27 | Cc1cn(CCN2CCN(c3ccccc3-c3cc(C#N)cc(C(=O)NCCCN4CCCC4)c3)CC2)c2ccccc12 [LLY-507] | -4.84 | -5.12 | -5.13 | -5.22 | 66.6 | 92.5 | 86.5 | 92.2 | 79.1 | 79.4 | 76.7 | 75.6
28 | CN(C)C(=O)C(CCN1CCC(O)(c2ccc(Cl)cc2)CC1)(c1ccccc1)c1ccccc1 [LOPERAMIDE] | -4.75 | -4.74 | -4.79 | -4.74 | 60.8 | 58.7 | 75.5 | 84 | 80.5 | 79.2 | 81.5 | 93.9
29 | CC(C)OC(=O)C(C(=O)OC(C)C)=C1SC=CS1 [MALOTILATE] | -4.94 | -4.94 | -4.88 | -4.89 | 88.2 | 32.7 | 30.3 | 50.9 | 83.7 | 34.8 | 35.2 | 57.4
30 | Cc1ccc(NC(=O)c2ccc(CN3CCN(C)CC3)cc2)cc1Nc1nc(-c2cccnc2)cs1 [MASITINIB] | -4.71 | -4.66 | -4.69 | -4.65 | 66.4 | 64.6 | 57.8 | 52.8 | 81.1 | 78.3 | 72.3 | 81
31 | Cc1cccc(CN2CCN(C(c3ccccc3)c3ccc(Cl)cc3)CC2)c1 (centres undefined) [MECLIZINE] | -4.91 | -4.86 | -4.89 | -4.83 | 44.3 | 35.5 | 42.8 | 85.1 | 48.7 | 41.1 | 41.9 | 79.1
32 | CN(C)c1ccc2nc3ccc(=[N+](C)C)cc-3sc2c1 [METHYLENE BLUE] | -5.48 | -5.03 | -5.31 | -5.04 | 76.9 | 89.6 | 76.5 | 67.9 | 50.7 | 69.6 | 56.7 | 54.8
